Data: patent US20230279002A1, “Polymorphs of Crystalline Forms of 3,10-dimethoxy-5,8,13,13a-tetrahydro-6H-isoquinolino[3,2-a]isoquinolin-9-yl 3-fluorobenzenesulfonate and Salts Thereof” (CVI Pharmaceuticals Limited, priority 2020, published 2023)

Experiment: DVS (Dynamic Vapor Sorption) moisture sorption/desorption, hygroscopicity classification
Format: physicochemical
Procedure, shortened: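 Moisture sorption/desorption profiled by DVS on about 10–20 mg sample, isothermal at 25° C, cycling 0%→95%→0% RH in 5% RH steps. Equilibrium per step taken at dm/dt ≤ 0.01%/min. Hygroscopicity class assigned from %-moisture gain versus rising RH.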

COc1ccc2c(c1)CCN1Cc3c(ccc(OC)c3OS(=O)(=O)c3cccc(F)c3)C[C@@H]21 [Compound 2b]
Hygroscopicity classification by DVS (25 °C): not hygroscopic | Change In Mass (%) - ref, Desorption (Cycle 1, target RH 0.0%): −0.0081% | Change In Mass (%) - ref, Sorption (Cycle 1, target RH 0.0%): 0.0011% | Change In Mass (%) - ref, Desorption (Cycle 1, target RH 5.0%): −0.0035% | Change In Mass (%) - ref, Hysteresis (Cycle 1, target RH 5.0%): −0.0042% | Change In Mass (%) - ref, Sorption (Cycle 1, target RH 5.0%): 0.0007% | Change In Mass (%) - ref, Desorption (Cycle 1, target RH 10.0%): 0.0000% | Change In Mass (%) - ref, Hysteresis (Cycle 1, target RH 10.0%): −0.0032% | Change In Mass (%) - ref, Sorption (Cycle 1, target RH 10.0%): 0.0032% | Change In Mass (%) - ref, Desorption (Cycle 1, target RH 15.0%): 0.0011% | Change In Mass (%) - ref, Hysteresis (Cycle 1, target RH 15.0%): −0.0033% | Change In Mass (%) - ref, Sorption (Cycle 1, target RH 15.0%): 0.0044% | Change In Mass (%) - ref, Desorption (Cycle 1, target RH 20.0%): 0.0044% | Change In Mass (%) - ref, Hysteresis (Cycle 1, target RH 20.0%): −0.0037% | Change In Mass (%) - ref, Sorption (Cycle 1, target RH 20.0%): 0.0081% | Change In Mass (%) - ref, Desorption (Cycle 1, target RH 25.0%): 0.0062% | Change In Mass (%) - ref, Hysteresis (Cycle 1, target RH 25.0%): −0.0037% | Change In Mass (%) - ref, Sorption (Cycle 1, target RH 25.0%): 0.0099% | Change In Mass (%) - ref, Desorption (Cycle 1, target RH 30.0%): 0.0081% | Change In Mass (%) - ref, Hysteresis (Cycle 1, target RH 30.0%): −0.0037% | Change In Mass (%) - ref, Sorption (Cycle 1, target RH 30.0%): 0.0118% | Change In Mass (%) - ref, Desorption (Cycle 1, target RH 35.0%): 0.0100% | Change In Mass (%) - ref, Hysteresis (Cycle 1, target RH 35.0%): −0.0033% | Change In Mass (%) - ref, Sorption (Cycle 1, target RH 35.0%): 0.0134% | Change In Mass (%) - ref, Desorption (Cycle 1, target RH 40.0%): 0.0123% | Change In Mass (%) - ref, Hysteresis (Cycle 1, target RH 40.0%): −0.0026% | Change In Mass (%) - ref, Sorption (Cycle 1, target RH 40.0%): 0.0150% | Change In Mass (%) - ref, Desorption (Cycle 1, target RH 45.0%): 0.0185% | Change In Mass (%) - ref, Hysteresis (Cycle 1, target RH 45.0%): 0.0012% | Change In Mass (%) - ref, Sorption (Cycle 1, target RH 45.0%): 0.0173% | Change In Mass (%) - ref, Desorption (Cycle 1, target RH 50.0%): 0.0204% | Change In Mass (%) - ref, Hysteresis (Cycle 1, target RH 50.0%): 0.0035% | Change In Mass (%) - ref, Sorption (Cycle 1, target RH 50.0%): 0.0169% | Change In Mass (%) - ref, Desorption (Cycle 1, target RH 55.0%): 0.0243% | Change In Mass (%) - ref, Hysteresis (Cycle 1, target RH 55.0%): 0.0056% | Change In Mass (%) - ref, Sorption (Cycle 1, target RH 55.0%): 0.0187% | Change In Mass (%) - ref, Desorption (Cycle 1, target RH 60.0%): 0.0264% | Change In Mass (%) - ref, Hysteresis (Cycle 1, target RH 60.0%): 0.0063% | Change In Mass (%) - ref, Sorption (Cycle 1, target RH 60.0%): 0.0201% | Change In Mass (%) - ref, Desorption (Cycle 1, target RH 65.0%): 0.0294% | Change In Mass (%) - ref, Hysteresis (Cycle 1, target RH 65.0%): 0.0083% | Change In Mass (%) - ref, Sorption (Cycle 1, target RH 65.0%): 0.0211% | Change In Mass (%) - ref, Desorption (Cycle 1, target RH 70.0%): 0.0344% | Change In Mass (%) - ref, Hysteresis (Cycle 1, target RH 70.0%): 0.0074% | Change In Mass (%) - ref, Sorption (Cycle 1, target RH 70.0%): 0.0270% | Change In Mass (%) - ref, Desorption (Cycle 1, target RH 75.0%): 0.0382% | Change In Mass (%) - ref, Hysteresis (Cycle 1, target RH 75.0%): 0.0030% | Change In Mass (%) - ref, Sorption (Cycle 1, target RH 75.0%): 0.0352% | Change In Mass (%) - ref, Desorption (Cycle 1, target RH 80.0%): 0.0446% | Change In Mass (%) - ref, Hysteresis (Cycle 1, target RH 80.0%): 0.0037% | Change In Mass (%) - ref, Sorption (Cycle 1, target RH 80.0%): 0.0409%
